Assay results taken from patent US4748161A, “Triterpenyl esters of organic acids and hypolipidemic agents composed of them” (Amano Pharmaceutical Co., Ltd., priority 1984, dated 1988).

Tested on: serum lipids and serum lipid hydroperoxide
Assay: Pharmacological test method A for anti-hyperlipidemic activity (serum lipids, 2 weeks feeding)
Assay type: in vivo, male Wistar strain rats
Conditions: for AI [(TC - HDL-C)/(HDL-C)] / HDL-C in serum / LPO in serum / PL in serum / TC in serum / TG in serum: 1% in hyperlipidemic diet, 2 weeks
Protocol: Male Wistar strain rats (100±lg, each 10 rats were formed into a group) were used as test animals. Diet for the control group was prepared by thorough mixing of 20% casein, 62.5% glucose, 10% hydrogenated coconut oil, 2% agar powder, 4% vitamin-containing salt mixture, 1% cholesterol, and 0.5% cholic acid (this composition is described by Fukushima et al, in "Yakugaku Zassi", 89, No. 6, pp. 857-862 (1962)). Diet for the test groups was prepared by good mixing of 1% each of cycloartenol, 24-methylenecycloartanol, and cyclobranol with the control group's diet. Each rat was kept in a cage at a constant temperature of 23±1° C. and a constant R.H. of 55±5% for 2 weeks, during which 10 g/day of the prescribed was given. Finally the rats were fasted from food except water for 16 hours (from 4 p.m. of the 14th test day to 8 a.m. of the 15th test day), and under anesthesia with pentbarbital sodium (tradename: Nembutal), blood was taken from each rat through the descending abdominal arota. Then, TC, HDL-C, TG, PL, and LPO in the serum were measured in the manner that will be described below.
A TC kit-K (supplied by Nippon Shoji Kaisha, Ltd.) was used. The principle of this determination is as follows: The ester of cholesterol in the serum is hydrolyzed with cholesterol-ester hydrolase into free cholesterol and fatty acids. All the free cholesterol is oxidized with cholesterol oxydase to form Δ^4 -cholestenone and hydrogen peroxide. Phenol and 4-aminoantipyrin are oxidatively condensed together by the formed hydrogen peroxide and peroxydase. The produced red quinone coloring matter is measured by colorimetry for absorbance at 500 nm using a spectrophotometer, thereby determining the TC:
The color-developing liquid (3.0 ml) is well mixed with the sample serum (0.02 ml). The mixture once heated at 37° C. for 15 minutes, is measured for absorbance at 500 nm with a spectrophotometer. The found absorbance is denoted by EA. On the other hand, the color-developing liquid (3.0 ml) is well mixed with the standard solution. The mixture is treated and measured for absorbance at 500 nm in the same manner as the above. This found absorbance is denoted by ES. Both EA and ES are determined with reference to the value of the blank test conducted using the color-developing liquid (3.0 ml) alone. [formula]
An HDL-C kit-N (supplied by Nippon Shoji Kaisha, Ltd.) was used. […] (VLDL) and lo density lipoprotein (LDL) in the serum is precipitated by the action of heparin. The precipitate is separated by centrifugation. High density lipoprotein (HDL) is dissolved in the separated supernatant. Esters of cholesterol in this fraction is hydrolyzed with cholesterol-ester hydrolase into free cholesterol and fatty acids. All the free cholesterol is oxidized with cholesterol oxydase to form Δ^4 -cholestenone and hydrogen peroxide. Phenol and 4-aminoantipyrine are oxidatively condensed together by the formed hydrogen peroxide and peroxydase. The produced red quinone coloring matter is measured by colorimetry for absorbance at 500 nm using a spectrophotometer, thereby determining the HDL-C.
A PL kit-K (supplied by Nippon Shoji Kaisha, Ltd.) was used for the determination. Lecithin, sphingomyelin, and lysolecithin are decomposed by phospholipase D into choline and phosphatidic acid, N-acylsphingosyl phosphate, or lysophosphatidic acid, respectively. The resulting choline is quantitatively decomposed by choline oxydase into hydrogen peroxide and betaine. With this hydrogen peroxide, and aid of peroxydase, phenol and 4-aminoantipyrin are condensed into red quinone pigment, then the absorbance at 500 nm of which is measured with a spectrophotometer, thereby determining the PL.
Serum TG level was determined by means of a triglyceride test kit (supplied by Wako Pure Chemical Industries, Ltd.) in which acetylacetone is used for a reagent, in the following manner: Serum proteins are precipitated, when isopropyl alcohol and the sample serum are mixed. […]

Row | Compound | AI [(TC - HDL-C)/(HDL-C)] | HDL-C in serum | LPO in serum | PL in serum | TC in serum | TG in serum | AI % of diff. (versus control group) | AI Diff. (versus control group) | HDL-C % of diff. (versus control group) | HDL-C Diff. (versus control group) | LPO % of diff. (versus control group) | LPO Diff. (versus control group) | PL % of diff. (versus control group) | PL Diff. (versus control group) | TC % of diff. (versus control group) | TC Diff. (versus control group) | TG % of diff. (versus control group) | TG Diff. (versus control group) | AI Diff. (Table 2, versus control group)
1 | COc1cc(C=CC(=O)OC2CCC34CC35CCC3(C)C(C(C)CCC(C)=C(C)C)CCC3(C)C5CCC4C2(C)C)ccc1O (centres unmarked) [Example 100-2, cyclobranyl-4-hydroxy-3-methoxycinnamate] | 0.772 | 94.1 mg/dL | 1.59 nmol/mL | 143.0 mg/dL | 166.7 mg/dL | 21.6 mg/dL | -49.1% | -0.745 | +18.5% | +15.1 mg/dl | -29.8% | -0.68 nmol/mL | -17.6% | -30.6 mg/dL | -18.7% | -38.4 mg/dL | -37.0% | -12.7 mg/dL | –
2 | C=C(CCC(C)C1CCC2(C)C3CCC4C(C)(C)C(OC(=O)C=Cc5cccc(N)c5)CCC45CC35CCC12C)C(C)C (centres unmarked) [Example 112, 24-methylenecycloartanyl ester of m-aminocinnamic acid] | 3.624 | 46.8 mg/dL | 2.16 nmol/mL | 150.4 mg/dL | 216.4 mg/dL | 28.5 mg/dL | -53.8% | -4.216 | +26.8% | +9.9 mg/dl | -22.9% | -0.64 nmol/mL | – | -15.2 mg/dL | -33.7% | -109.8 mg/dL | -16.2% | -5.5 mg/dL | –
3 | Cycloartenyl-3,4-dipropionyloxycinnamate [Example 3] | 1.605 | 76.8 mg/dL | 2.40 nmol/mL | 167.0 mg/dL | 200.1 mg/dL | 33.3 mg/dL | +5.8% | – | -5.8% | -4.7 mg/dL | +5.8% | +0.13 nmol/ml | -3.8% | -6.6 mg/dL | -2.4% | -5.0 mg/dL | -2.9% | -1.0 mg/dL | +0.088 mg/dl
4 | C=C(CCC(C)C1CCC2(C)C3CCC4C(C)(C)C(OC(=O)C=Cc5ccc(OC(C)=O)c(OCC)c5)CCC45CC35CCC12C)C(C)C (centres unmarked) [Example 72, 24-methylenecycloartanyl-4-acetoxy-3-ethoxycinnamate] | 1.091 | 89.2 mg/dL | 2.07 nmol/mL | 160.3 mg/dL | 186.5 mg/dL | 41.8 mg/dL | -35.2% | -0.593 | +10.2% | +8.3 mg/dl | -10.4% | -0.24 nmol/mL | -10.8% | -19.4 mg/dL | -14.1% | -30.6 mg/dL | -2.4% | -1.0 mg/dL | –
5 | CC(C)=CCCC(C)C1CCC2(C)C3CCC4C(C)(C)C(OC(=O)C=Cc5ccc(N)cc5)CCC45CC35CCC12C (centres unmarked) [Example 102, cycloartenyl ester of p-amino-cinnamic acid] | 3.262 | 48.1 mg/dL | 2.02 nmol/mL | 140.9 mg/dL | 205.0 mg/dL | 26.7 mg/dL | -58.4% | -4.578 | +30.4% | +11.2 mg/dl | -27.9% | -0.78 nmol/mL | -14.9% | -24.7 mg/dL | -37.2% | -121.2 mg/dL | -21.5% | -7.3 mg/dL | –
6 | CC(C)=CCCC(C)C1CCC2(C)C3CCC4C(C)(C)C(OC(=O)c5ccc(O)c(O)c5)CCC45CC35CCC12C (centres unmarked) [Example 27, cycloartenyl-3,4-dihydroxybenzoate] | 0.955 | 95.2 mg/dL | 1.99 nmol/mL | 160.3 mg/dL | 186.1 mg/dL | 40.4 mg/dL | -43.3% | -0.729 | +17.7% | +14.3 mg/dl | -14.0% | -0.32 nmol/mL | -10.8% | -19.4 mg/dL | -14.3% | -31.0 mg/dL | -5.5% | -2.4 mg/dL | –
7 | CC(C)=CCCC(C)C1CCC2(C)C3CCC4C(C)(C)C(OC(=O)c5ccc(O)cc5)CCC45CC35CCC12C (centres unmarked) [Example 10, cycloartenyl-p-hydroxybenzoate] | 1.543 | 57.6 mg/dL | 1.73 nmol/mL | 123.3 mg/dL | 146.5 mg/dL | 27.3 mg/dL | -12.7% | -0.224 | -4.3% | -2.6 mg/dL | -31.6% | -0.80 nmol/mL | -9.8% | -13.4 mg/dL | -12.1% | -20.1 mg/dL | +0.4% | +0.1 mg/dl | –
8 | CCOc1cc(C(=O)OC2CCC34CC35CCC3(C)C(C(C)CCC=C(C)C)CCC3(C)C5CCC4C2(C)C)ccc1O (centres unmarked) [Example 60, cycloartenyl-3-ethoxy-4-hydroxybenzoate] | 0.609 | 102.5 mg/dL | 1.98 nmol/mL | 161.4 mg/dL | 164.9 mg/dL | 32.8 mg/dL | -39.2% | -0.393 | +6.5% | +6.3 mg/dl | -15.0% | -0.35 nmol/mL | -10.8% | -19.5 mg/dL | 14.4% | -27.7 mg/dL | -1.2% | -0.4 mg/dL | –
9 | CC(C)=C(C)CCC(C)C1CCC2(C)C3CCC4C(C)(C)C(OC(=O)c5ccccc5O)CCC45CC35CCC12C (centres unmarked) [Example 41, cyclobranyl-o-hydroxybenzoate] | 0.890 | 92.9 mg/dL | 2.01 nmol/mL | 156.7 mg/dL | 175.6 mg/dL | 41.5 mg/dL | -47.1% | -0.794 | +14.8% | +12.0 mg/dl | -13.0% | -0.30 nmol/mL | -12.8% | -23.0 mg/dL | 19.1% | -41.5 mg/dL | -3.0% | -1.3 mg/dL | –
